Source: article PMC7531286 (Phytomedicine, 2020)

Experiments:
[1] = target: SARS-CoV-2 spike protein (S1 subunit, His tag) (Severe acute respiratory syndrome coronavirus 2, UniProt P0DTC2); test: biochemical; assay type: binding
[2] = target: MERS-CoV spike protein (S1 subunit, His tag) (Middle East respiratory syndrome-related coronavirus, UniProt K9N5Q8); test: biochemical; assay type: binding
[3] = target: SARS-CoV spike protein (S1 subunit, His tag) (Severe acute respiratory syndrome coronavirus, UniProt P59594); test: biochemical; assay type: binding
[4] = target: SARS-CoV-2 S-RBD/ACE2 interaction (Severe acute respiratory syndrome coronavirus 2, UniProt P0DTC2); assay type: cell-based
[5] = system: mouse aorta smooth muscle cells (MASMCs); test: MTT cell toxicity assay, MASMCs; settings: at high concentrations (100 μM)

MERS-CoV spike protein (S1 subunit, His tag), sequence (K9N5Q8 18-751 limits assumed): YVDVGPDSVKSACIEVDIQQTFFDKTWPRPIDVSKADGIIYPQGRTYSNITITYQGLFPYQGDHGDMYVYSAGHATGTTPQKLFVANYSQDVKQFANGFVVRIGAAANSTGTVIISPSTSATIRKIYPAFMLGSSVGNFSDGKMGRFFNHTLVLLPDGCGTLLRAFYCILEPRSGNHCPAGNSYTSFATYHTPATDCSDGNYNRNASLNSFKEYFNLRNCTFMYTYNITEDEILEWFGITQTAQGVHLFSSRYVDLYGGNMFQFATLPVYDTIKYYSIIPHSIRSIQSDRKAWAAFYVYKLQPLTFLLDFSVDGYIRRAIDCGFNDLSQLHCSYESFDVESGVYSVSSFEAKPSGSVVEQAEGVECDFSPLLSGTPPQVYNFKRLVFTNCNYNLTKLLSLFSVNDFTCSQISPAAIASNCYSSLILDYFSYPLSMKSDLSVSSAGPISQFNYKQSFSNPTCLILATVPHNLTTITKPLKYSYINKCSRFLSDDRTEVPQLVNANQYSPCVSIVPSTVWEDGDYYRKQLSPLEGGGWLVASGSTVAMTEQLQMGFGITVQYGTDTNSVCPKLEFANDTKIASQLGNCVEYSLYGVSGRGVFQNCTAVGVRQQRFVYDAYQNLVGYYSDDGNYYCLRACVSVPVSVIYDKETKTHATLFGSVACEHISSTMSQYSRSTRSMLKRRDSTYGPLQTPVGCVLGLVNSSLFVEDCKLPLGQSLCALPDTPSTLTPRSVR

Row | Structure (SMILES) | Kd [1] [µM] | Kd [2] [µM] | Kd [3] [µM] | Disruption of the SARS-CoV-2 S-RBD/ACE2 interaction in cells [4] | Cell toxicity to MASMCs [5]
1 | CC(C)=CCC[C@](C)(O[C@@H]1O[C@H](CO[C@@H]2O[C@H](CO)[C@@H](O)[C@H](O)[C@H]2O)[C@@H](O)[C@H](O)[C@H]1O)[C@H]1CC[C@]2(C)[C@@H]1[C@H](O)C[C@@H]1[C@@]3(C)CC[C@H](O[C@@H]4O[C@H](CO)[C@@H](O)[C@H](O)[C@H]4O[C@@H]4O[C@H](CO)[C@@H](O)[C@H](O)[C@H]4O)C(C)(C)[C@@H]3CC[C@]12C [ZZY-9, Ginsenoside Rb1] | 0.47 | 3.45 | 29.7 | – | –
2 | CC(C)=CCC[C@](C)(O[C@@H]1O[C@H](CO[C@@H]2OC[C@@H](O)[C@H](O)[C@H]2O)[C@@H](O)[C@H](O)[C@H]1O)[C@H]1CC[C@]2(C)[C@@H]1[C@H](O)C[C@@H]1[C@@]3(C)CC[C@H](O[C@@H]4O[C@H](CO)[C@@H](O)[C@H](O)[C@H]4O[C@@H]4O[C@H](CO)[C@@H](O)[C@H](O)[C@H]4O)C(C)(C)[C@@H]3CC[C@]12C [ZZY-13, Ginsenoside Rb3] | 1 | 0.25 | 2 | could disrupt | no cell toxicity
3 | CC1(C)[C@@H](O[C@H]2O[C@H](C(=O)O)[C@@H](O)[C@H](O)[C@H]2O[C@@H]2O[C@H](C(=O)O)[C@@H](O)[C@H](O)[C@H]2O)CC[C@]2(C)[C@H]3C(=O)C=C4[C@@H]5C[C@@](C)(C(=O)O)CC[C@]5(C)CC[C@@]4(C)[C@]3(C)CC[C@@H]12 [ZZY-44, Glycyrrhizic acid] | – | 0.47 | 66.8 | could disrupt | no cell toxicity
4 | COc1ccc2cc3[n+](cc2c1OC)CCc1cc2c(cc1-3)OCO2 [ZZY-54, Berberine Chloride] | 1.24 | 7.39 | 23.9 | – | –
